Data: PMC6009911, “Inhibition of human cytochromes P450 2A6 and 2A13 by flavonoids, acetylenic thiophenes and sesquiterpene lactones from Pluchea indica and Vernonia cinerea” (Journal of Enzyme Inhibition and Medicinal Chemistry, 2017)
Where two headings read alike, the source gives them in different places.

Key:
CYP2A13 [1] = target: T1, CYP2A13 (Homo sapiens, UniProt Q16696); set-up: method as in PMID 23903410, PMID 17672516; details: literature values; cited from earlier work
T1 construct: made in house
T1 sequence (Q16696 1-494): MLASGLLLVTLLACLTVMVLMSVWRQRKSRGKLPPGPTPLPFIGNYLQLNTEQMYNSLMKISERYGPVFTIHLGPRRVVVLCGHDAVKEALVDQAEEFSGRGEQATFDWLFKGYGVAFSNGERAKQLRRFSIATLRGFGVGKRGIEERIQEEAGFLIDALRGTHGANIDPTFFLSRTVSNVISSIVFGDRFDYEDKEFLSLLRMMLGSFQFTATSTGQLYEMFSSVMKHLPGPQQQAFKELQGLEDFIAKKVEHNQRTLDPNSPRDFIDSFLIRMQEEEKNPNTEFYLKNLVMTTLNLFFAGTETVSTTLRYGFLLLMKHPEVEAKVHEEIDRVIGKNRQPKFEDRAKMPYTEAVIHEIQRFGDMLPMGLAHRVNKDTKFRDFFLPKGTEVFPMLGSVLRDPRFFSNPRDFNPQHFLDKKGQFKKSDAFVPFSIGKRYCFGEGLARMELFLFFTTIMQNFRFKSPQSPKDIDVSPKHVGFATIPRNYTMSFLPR

CYP2A6 [2] = target: T2, CYP2A6 (Homo sapiens, UniProt P11509); details: read-out: inactivation kinetic values (KI) against CYP2A6; literature values; cited from earlier work
T2 sequence (P11509 1-494): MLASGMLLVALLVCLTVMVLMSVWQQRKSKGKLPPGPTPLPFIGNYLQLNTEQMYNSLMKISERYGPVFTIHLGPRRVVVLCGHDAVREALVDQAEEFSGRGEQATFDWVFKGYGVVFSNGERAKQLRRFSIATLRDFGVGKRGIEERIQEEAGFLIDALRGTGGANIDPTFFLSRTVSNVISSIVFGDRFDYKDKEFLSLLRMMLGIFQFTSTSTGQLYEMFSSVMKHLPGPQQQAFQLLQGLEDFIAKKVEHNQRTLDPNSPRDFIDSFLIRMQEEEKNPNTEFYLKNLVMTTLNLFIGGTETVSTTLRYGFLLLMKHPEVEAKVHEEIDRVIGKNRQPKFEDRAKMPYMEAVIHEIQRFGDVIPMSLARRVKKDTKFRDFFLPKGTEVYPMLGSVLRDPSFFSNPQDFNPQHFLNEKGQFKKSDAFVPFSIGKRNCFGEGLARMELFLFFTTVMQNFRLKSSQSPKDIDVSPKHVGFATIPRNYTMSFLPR

CYP2A13 [3] = target: T1, CYP2A13; test: Mechanism-based (time- and NADPH-dependent) inactivation of CYP2A13; type: biochemical; details: pre-incubation 0-30 min with NADPH; for KI (inactivation): read-out: CYP2A13 KI (inactivation constant)
Method: (§1) MBI requires NADPH and time to generate reactive intermediate as inhibitor and ultimately inactivates the enzyme. MBI was evaluated by pre-incubation with each test inhibitor in the reaction at different time periods (0, 10, 20 and 30 min) in the presence of NADPH for time-dependent assay, as described. The apparent inactivation constants, KI and Kinact, were obtained from double reciprocal plots of kobs versus inhibitor concentrations by linear regression analysis on GraphPad Prism 5. Methoxsalen was used as a control mechanism-based inhibitor for time- and NADPH-dependent inhibition assays.

CYP2A6 [4] = target: T2, CYP2A6; test: Mechanism-based (time- and NADPH-dependent) inactivation of CYP2A6; type: biochemical; set-up: made in house; details: human, recombinant human CYP2A6, probe coumarin, pre-incubation 0-30 min with NADPH; for KI (inactivation): read-out: CYP2A6 KI (inactivation constant)
Method: as §1

CYP2A6 [5] = target: T2, CYP2A6; test: Inhibition of CYP2A6-mediated coumarin 7-hydroxylation, enzymatic reconstitution assay; type: biochemical; set-up: made in house; details: for Ki: coumarin 0–40 µM
Method: (§2) Inhibitory effect of plant extracts, fractions, subfractions and constituents was determined by inhibition assay on CYP2A6- and CYP2A13-mediated coumarin 7-hydroxylation. The recombinant human CYP2A6, CYP2A13 and rat NADPH-dependent cytochrome P450 oxidoreductase (CYPOR) proteins were expressed, purified, according to the methods previously described. […] Rate of 7-hydroxycoumarin product formation was measured on spectrofluorometer (Shimadzu, Kyoto, Japan) at λex = 355 nm, λem = 460 nm. Inhibition effects were determined by incubation with extracts, fractions or purified compounds with coumarin substrate in the reaction mixture and calculated as per cent relative inhibition compared with vehicle control reaction[20] and IC50 values were calculated using GraphPad Prism 5 (GraphPad Software Inc., La Jolla, CA).
as §1

CYP2A6 [6] = target: T2, CYP2A6; test: Effects of trapping agents and dialysis on inactivation of CYP2A6; type: biochemical; set-up: made in house; details: CYP2A6 inhibition reaction mixture, probe coumarin, compound 5 µM
Method: as §1
(§3) To explore whether inactivation of CYP2As by thiophenes 9–11 and of CYP2A13 by hirsutinolides 5-8 could be reversed, the removal of reversible inhibitory compounds by dialysis and addition of trapping agents (GSH, semicarbazide, catalase or potassium ferricyanide) in the inhibition reaction mixture were performed. […] Similarly, mechanism-based inactivation of both CYP2A6 and CYP2A13 by thiophenes 9–11 could not be reversed (Table 3).

CYP2A13 [7] = target: T1, CYP2A13; test: Inhibition of CYP2A13-mediated coumarin 7-hydroxylation, enzymatic reconstitution assay; type: biochemical; details: for Ki: coumarin 0–40 µM
Method: as §2, §1

CYP2A13 [8] = target: T1, CYP2A13; test: Effects of trapping agents and dialysis on inactivation of CYP2A13; type: biochemical; details: CYP2A13 inhibition reaction mixture, probe coumarin, compound 5 µM
Method: as §1, §3

CYP2A6 [9] = target: T2, CYP2A6; set-up: made in house; method as in PMID 25857233; details: cited from earlier work
CYP2A6 [10] = target: T2, CYP2A6; set-up: made in house; details: ref Prasopthum et al., 2015, cited from earlier work
[11] = 10-min pre-incubation in the presence of NADPH, read-out: IC50 CYP2A6 Pre-incubation
[12] = coincubation, coumarin 2 µM, read-out: IC50 CYP2A6 Coincubation
[13] = read-out: Per cent remaining activity, 70 μM K3Fe(CN)6
[14] = read-out: Per cent remaining activity, 2 mM GSH
[15] = read-out: Per cent remaining activity, 5 mM semicarbazide
[16] = read-out: Per cent remaining activity, 2000 U catalase
[17] = read-out: Per cent remaining activity, Dialysis (+) NADPH
[18] = read-out: Per cent remaining activity, Dialysis (−) NADPH
[19] = read-out: Per cent remaining activity, Pre-incubation
[20] = 10-min pre-incubation in the presence of NADPH, read-out: IC50 CYP2A13 Pre-incubation
[21] = coincubation, coumarin 2 µM, read-out: IC50 CYP2A13 Coincubation

Compound: CC(C)(C)N=C=S [tert-butyl isothiocyanate]
- KI values against CYP2A13 (CYP2A13 [1]): 4.3 µM

Compound: rhinacanthin-A [reference compound]
- KI (inactivation) (CYP2A6 [2]): 0.69 µM
- KI values against CYP2A13 (CYP2A13 [1]): 0.42 µM

Compound: C/C=C(\C)CC/C=C(\C)C(=O)OCC(C)(C)CC1=C(O)C(=O)c2ccccc2C1=O [rhinacanthin-C, reference compound]
- KI (inactivation) (CYP2A6 [2]): 0.97 µM
- KI values against CYP2A13 (CYP2A13 [1]): 1.68 µM

Compound: S=C=NCCCc1ccccc1 [phenylpropyl isothiocyanate]
- KI values against CYP2A13 (CYP2A13 [1]): 0.14 µM

Compound: CC#CC#Cc1ccc(C#CC(O)COC(C)=O)s1 (stereo not drawn) [Thiophene 9, 2-(penta-1,3-diyn-1-yl)-5–(4-acetoxy-3-hydroxybuta-1-yn-1-yl) thiophene]
- kinact (CYP2A13 [3]): 0.00133 s⁻¹
- KI (inactivation) (CYP2A13 [3]): 0.97 ± 0.04 µM
- kinact (CYP2A6 [4]): 0.00167 s⁻¹
- KI (inactivation) (CYP2A6 [4]): 0.88 ± 0.09 µM
- CYP2A6 Mode of inhibition (CYP2A6 [5]): Mixed type
- IC50 (CYP2A6 [5]; [11]): 2.12 ± 0.19 µM
- IC50 (CYP2A6 [5]; [12]): 6.43 ± 1.29 µM
- Ki (CYP2A6 [5]): 3.23 ± 0.43 µM
- activity at 5 µM (CYP2A6 [6]; [13]): 22.7 ± 1.58%
- activity at 5 µM (CYP2A6 [6]; [14]): 21.6 ± 1.97%
- activity at 5 µM (CYP2A6 [6]; [15]): 26.8 ± 2.39%
- activity at 5 µM (CYP2A6 [6]; [16]): 26.9 ± 3.07%
- activity at 5 µM (CYP2A6 [6]; [17]): 20.1 ± 5.21%
- activity at 5 µM (CYP2A6 [6]; [18]): 89.3 ± 7%
- activity at 5 µM (CYP2A6 [6]; [19]): 30.1 ± 3.7%
- CYP2A13 Mode of inhibition (CYP2A13 [7]): Mixed type
- IC50 (CYP2A13 [7]; [20]): 2.29 ± 0.34 µM
- IC50 (CYP2A13 [7]; [21]): 6.18 ± 0.28 µM
- Ki (CYP2A13 [7]): 2.96 ± 0.1 µM
- activity at 5 µM (CYP2A13 [8]; [13]): 24.9 ± 3.95%
- activity at 5 µM (CYP2A13 [8]; [14]): 23.2 ± 3.38%
- activity at 5 µM (CYP2A13 [8]; [15]): 23.2 ± 3.38%
- activity at 5 µM (CYP2A13 [8]; [16]): 22.1 ± 2.39%
- activity at 5 µM (CYP2A13 [8]; [17]): 20.9 ± 0.24%
- activity at 5 µM (CYP2A13 [8]; [18]): 85.3 ± 4.98%
- activity at 5 µM (CYP2A13 [8]; [19]): 29 ± 4.57%

Compound: CC#Cc1ccc(C#CC#CC(O)COC(C)=O)s1 (stereo not drawn) [Thiophene 10, 2-(prop-1-inyl)-5–(6-acetoxy-5-hydroxyhexa-1,3-diinyl) thiophene]
- kinact (CYP2A13 [3]): 0.001 s⁻¹
- KI (inactivation) (CYP2A13 [3]): 0.86 ± 0.09 µM
- kinact (CYP2A6 [4]): 0.00183 s⁻¹
- KI (inactivation) (CYP2A6 [4]): 1.01 ± 0.07 µM
- CYP2A6 Mode of inhibition (CYP2A6 [5]): Mixed type
- IC50 (CYP2A6 [5]; [11]): 2.97 ± 0.01 µM
- IC50 (CYP2A6 [5]; [12]): 4.44 ± 0.14 µM
- Ki (CYP2A6 [5]): 2.07 ± 0.23 µM
- activity at 5 µM (CYP2A6 [6]; [13]): 19.2 ± 1.83%
- activity at 5 µM (CYP2A6 [6]; [14]): 28.5 ± 1.72%
- activity at 5 µM (CYP2A6 [6]; [15]): 21.1 ± 3.31%
- activity at 5 µM (CYP2A6 [6]; [16]): 24.1 ± 4.49%
- activity at 5 µM (CYP2A6 [6]; [17]): 23.7 ± 2.06%
- activity at 5 µM (CYP2A6 [6]; [18]): 87.5 ± 9.25%
- activity at 5 µM (CYP2A6 [6]; [19]): 35.2 ± 3.22%
- CYP2A13 Mode of inhibition (CYP2A13 [7]): Mixed type
- IC50 (CYP2A13 [7]; [20]): 1.15 ± 0.88 µM
- IC50 (CYP2A13 [7]; [21]): 2.94 ± 0.01 µM
- Ki (CYP2A13 [7]): 1.12 ± 0.09 µM
- activity at 5 µM (CYP2A13 [8]; [13]): 26.9 ± 1.75%
- activity at 5 µM (CYP2A13 [8]; [14]): 27 ± 8.11%
- activity at 5 µM (CYP2A13 [8]; [15]): 27 ± 8.11%
- activity at 5 µM (CYP2A13 [8]; [16]): 22.2 ± 2.38%
- activity at 5 µM (CYP2A13 [8]; [17]): 21.4 ± 3.95%
- activity at 5 µM (CYP2A13 [8]; [18]): 93 ± 6.58%
- activity at 5 µM (CYP2A13 [8]; [19]): 28.9 ± 1.25%

Compound: O=c1cc(-c2ccc(O)c(O)c2)oc2cc(O)cc(O)c12 [Luteolin 2, luteolin]
- inhibition of CYP2A6-mediated nicotine metabolism (CYP2A6 [9]): showed inhibition
- IC50 (CYP2A6 [10]; [11]): 1.26 ± 0.07 µM
- IC50 (CYP2A6 [10]; [12]): 1.38 ± 0.18 µM
- Ki (CYP2A6 [10]; coumarin 0–40 µM): 0.8 ± 0.06 µM
- CYP2A6 Mode of inhibition (CYP2A6 [10]): Competitive^b
- IC50 (CYP2A13 [7]; [20]): 0.17 ± 0.01 µM
- IC50 (CYP2A13 [7]; [21]): 0.18 ± 0.02 µM
- Ki (CYP2A13 [7]): 0.07 ± 0.01 µM

Compound: rhinacanthin-B [reference compound]
- KI (inactivation) (CYP2A6 [2]): 0.44 µM
- KI values against CYP2A13 (CYP2A13 [1]): 0.16 µM

Compound: S=C=NCCCCCCc1ccccc1 [phenylhexyl isothiocyanate]
- KI values against CYP2A13 (CYP2A13 [1]): 1.1 µM
